Here are results for 19 molecules from ChEMBL document CHEMBL4834439, “New indenopyrazole linked oxadiazole conjugates as anti-pancreatic cancer agents: Design, synthesis, in silico studies including 3D-QSAR analysis” (Bioorg Med Chem Lett, 2021).

Molecules are shown by their SMILES. A value given as a limit tells only on which side of the number the result lay.

Experiment [1] concerns MCF7. The experiment in a line: Antiproliferative activity against human MCF7 cells assessed as reduction in cell viability after 48 hrs by MTT assay. As to conditions: MCF7, 48 h. The class given is functional, cell-based. Background: Tetrazolium assays rely on reduction of a dye to a coloured formazan, in cell work by metabolically active cells.
In experiment [2] the test system is MRC5. The experiment in a line: Antiproliferative activity against human MRC5 cells assessed as reduction in cell viability after 48 hrs by MTT assay. The class given is cell-based. As to conditions: MRC5, 48 h.
In experiment [3] the test system is PANC-1. The experiment in a line: Antiproliferative activity against human PANC-1 cells assessed as reduction in cell viability after 48 hrs by MTT assay. The class given is functional, cell-based. As to conditions: PANC-1, 48 h.
In experiment [4] the test system is Caco-2. The experiment in a line: Antiproliferative activity against human Caco-2 cells assessed as reduction in cell viability after 48 hrs by MTT assay. The class given is functional, cell-based. As to conditions: Caco-2, 48 h.
Experiment [5] has as its system MDA-MB-231. The experiment in a line: Antiproliferative activity against human MDA-MB-231 cells assessed as reduction in cell viability after 48 hrs by MTT assay. The class given is functional, cell-based. As to conditions: MDA-MB-231, 48 h.
The subject of experiment [6] is PANC-1. The experiment in a line: Induction of apoptosis in human PANC-1 cells assessed as early apoptotic cells at 10 uM incubated for 48 hrs by annexin V FITC and propidium iodide staining based flow cytometry analysis (reference value: 0.2%). The class given is functional. For orientation: In flow cytometry, cells or beads pass a laser one at a time.
In experiment [7] the test system is PANC-1. The experiment in a line: Induction of cell cycle arrest in human PANC-1 cells assessed as accumulation of cells at G2/M phase at 10 uM incubated for 48 hrs propidium iodide-A staining-based flow cytometric analysis (reference value: 6.71%). The class given is functional.
The subject of experiment [8] is PANC-1. The experiment in a line: Induction of apoptosis in human PANC-1 cells assessed as necrotic cells at 10 uM incubated for 48 hrs by annexin V FITC and propidium iodide staining based flow cytometry analysis (reference value: 0%). The class given is functional.
Experiment [9] deals with PANC-1. The experiment in a line: Induction of apoptosis in human PANC-1 cells assessed as viable cells at 10 uM incubated for 48 hrs by annexin V FITC and propidium iodide staining based flow cytometry analysis (reference value: 99.5%). It counts as functional. As to conditions: read-out: Activity.
The subject of experiment [10] is PANC-1. The experiment in a line: Induction of apoptosis in human PANC-1 cells assessed as necrotic cells at 5 uM incubated for 48 hrs by annexin V FITC and propidium iodide staining based flow cytometry analysis (reference value: 0%). It counts as functional.
Experiment [11] deals with PANC-1. The experiment in a line: Induction of cell cycle arrest in human PANC-1 cells assessed as accumulation of cells at S phase at 5 uM incubated for 48 hrs propidium iodide-A staining-based flow cytometric analysis (reference value: 44.71%). The class given is functional.
In experiment [12] the test system is PANC-1. The experiment in a line: Induction of apoptosis in human PANC-1 cells assessed as late apoptotic cells at 5 uM incubated for 48 hrs by annexin V FITC and propidium iodide staining based flow cytometry analysis (reference value: 0.1%). It counts as functional.
The subject of experiment [13] is PANC-1. The experiment in a line: Induction of cell cycle arrest in human PANC-1 cells assessed as accumulation of cells at G2/M phase at 5 uM incubated for 48 hrs propidium iodide-A staining-based flow cytometric analysis (reference value: 6.71%). The class given is functional.
In experiment [14] the test system is PANC-1. The experiment in a line: Induction of apoptosis in human PANC-1 cells assessed as increase in caspase 3 activity. It counts as functional, cell-based. As to conditions: dose 5-10 µM.
The test system of experiment [15] is PANC-1. The experiment in a line: Induction of apoptosis in human PANC-1 cells assessed as viable cells at 5 uM incubated for 48 hrs by annexin V FITC and propidium iodide staining based flow cytometry analysis (reference value: 99.5%). It counts as functional. As to conditions: read-out: Activity.
For experiment [16], the system named is PANC-1. The experiment in a line: Induction of apoptosis in human PANC-1 cells assessed as increase in caspase 9 activity. As to conditions: dose 5-10 µM. The class given is functional, cell-based.
Experiment [17] concerns PANC-1. The experiment in a line: Induction of cell cycle arrest in human PANC-1 cells assessed as accumulation of cells at S phase at 10 uM incubated for 48 hrs propidium iodide-A staining-based flow cytometric analysis (reference value: 44.71%). The class given is functional.
For experiment [18], the system named is PANC-1. The experiment in a line: Induction of cell cycle arrest in human PANC-1 cells assessed as accumulation of cells at G0/G1 phase at 10 uM incubated for 48 hrs propidium iodide-A staining-based flow cytometric analysis (reference value: 48.58%). It counts as functional.
Experiment [19] relates to PANC-1. The experiment in a line: Induction of cell cycle arrest in human PANC-1 cells assessed as accumulation of cells at G0/G1 phase at 5 uM incubated for 48 hrs propidium iodide-A staining-based flow cytometric analysis (reference value: 48.58%). The class given is functional.
For experiment [20], the system named is PANC-1. The experiment in a line: Induction of apoptosis in human PANC-1 cells assessed as late apoptotic cells at 10 uM incubated for 48 hrs by annexin V FITC and propidium iodide staining based flow cytometry analysis (reference value: 0.1%). It counts as functional.
Experiment [21] deals with PANC-1. The experiment in a line: Induction of apoptosis in human PANC-1 cells assessed as early apoptotic cells at 5 uM incubated for 48 hrs by annexin V FITC and propidium iodide staining based flow cytometry analysis (reference value: 0.2%). The class given is functional.

On to `COc1ccc(/C=C/c2nnc(-c3[nH]nc4c3Cc3cc(F)ccc3-4)o2)cc1OC`, for which the IC50 (in general, the concentration needed to halve the response being measured) came to 18.1 µM in [1]; 58 µM in experiment [2]; 23 µM in experiment [3]; 18.7 µM in experiment [4]; 17.6 µM in [5].

With `O=[N+]([O-])c1ccc(/C=C/c2nnc(-c3[nH]nc4c3Cc3cc(F)ccc3-4)o2)cc1`, the IC50 in experiment [2] is 89 µM; in [3] it was 16.8 µM; in experiment [4], more than 100 µM; in experiment [5] it was 21.9 µM.

For `COc1cc2c(cc1OC)-c1n[nH]c(-c3nnc(/C=C/c4ccc([N+](=O)[O-])cc4)o3)c1C2`, the Activity stood at 2.5% in experiment [6]; 2% in experiment [7]; 10.3% in experiment [8]; 1.2% in experiment [10]; 53.38% in experiment [11]; 27.5% in experiment [12]. In addition, the Activity is 4.26% in [13]; “Dose-Dependent Effect” in experiment [14]; “Dose-Dependent Effect” in experiment [16]; 73.06% in experiment [17]; 24.94% in [18]; 42.09% in experiment [19]. The Activity in experiment [20] is listed as 31.2%. Further, the IC50 turned out to be 20.2 µM in experiment [1]; 49 µM in [2]; 4.3 µM in [3]; 20 µM in experiment [4]; 16.3 µM in [5]. Moreover, in [9], the viability at 10 µM worked out at 52.2%. Further, the viability at 5 µM in experiment [15] was determined as 64.1%.

As for `COc1ccc(/C=C/c2nnc(-c3[nH]nc4c3Cc3cc(OC)c(OC)cc3-4)o2)cc1OC`, the IC50 in [1] is 14.5 µM; in experiment [2] it was 63 µM; in experiment [3], more than 100 µM; in experiment [4] it was 22.7 µM; in experiment [5], 23.2 µM.

On to `COc1cc(/C=C/c2nnc(-c3[nH]nc4c3Cc3cc(F)ccc3-4)o2)cc(OC)c1OC`, for which the IC50 in [1] was determined as 44.8 µM; in experiment [2], 61 µM; in experiment [3], 15.5 µM; in experiment [4] it was 16.1 µM; in experiment [5], 17.2 µM.

For `COc1cc(/C=C/c2nnc(-c3[nH]nc4c3Cc3ccccc3-4)o2)cc(OC)c1OC`, the IC50 in experiment [1] stood at 37.2 µM; in experiment [2] it was 55 µM; in [3] it was 24.2 µM; in experiment [4], 31.7 µM; in [5], 18.4 µM.

Take `COc1ccc2c(c1)Cc1c-2n[nH]c1-c1nnc(/C=C/c2ccc([N+](=O)[O-])cc2)o1`: the Activity in [6] came out at 5.5%; in [7] it was 7.35%; in experiment [8], 7.5%; in [10], 4.6%; in experiment [11], 46.6%; in [12], 16.5%. The Activity in [13] is 17.85%; in experiment [14], “Dose-Dependent Effect”; in experiment [16] it was “Dose-Dependent Effect”; in experiment [17], 59.87%; in experiment [18] it was 32.78%; in experiment [21], 1.9%. For the same molecule, the Activity in [19] was 36.55%; in experiment [20], 27.2%. Moreover, the IC50 in [1] turned out to be 20.6 µM; in experiment [2] it was 41 µM; in experiment [3], 7.4 µM; in experiment [4], 57.1 µM; in [5], 21.3 µM. In [9], the viability at 10 µM came to 60.3%. For the same molecule, the viability at 5 µM in [15] was 76.7%.

In the case of `COc1ccc(/C=C/c2nnc(-c3[nH]nc4c3Cc3cc(OC)ccc3-4)o2)cc1`, the IC50 in [1] was 60.2 µM; in [2], 54 µM; in experiment [3] it was 17.4 µM; in experiment [4], 10.6 µM; in [5], 16.6 µM.

Take `Fc1ccc2c(c1)Cc1c-2n[nH]c1-c1nnc(/C=C/c2ccccc2)o1`: the IC50 was 60.4 µM in [1]; 66 µM in experiment [2]; 21.5 µM in experiment [3]; 15.9 µM in experiment [4]; 18 µM in [5].

Consider `COc1ccc2c(c1)Cc1c-2n[nH]c1-c1nnc(/C=C/c2ccccc2)o1`, for which the IC50 is 67.6 µM in experiment [1]; 65 µM in [2]; 26 µM in experiment [3]; 13.1 µM in experiment [4]; 12.8 µM in experiment [5].

For the molecule `COc1ccc(/C=C/c2nnc(-c3[nH]nc4c3Cc3cc(OC)c(OC)cc3-4)o2)cc1`, the IC50 was 10.1 µM in experiment [1]; 89 µM in [2]; 27.3 µM in experiment [3]; 14.9 µM in experiment [4]; 25 µM in experiment [5].

As to `COc1cc2c(cc1OC)-c1n[nH]c(-c3nnc(/C=C/c4cc(OC)c(OC)c(OC)c4)o3)c1C2`, the IC50 in experiment [1] came out at 14.4 µM; in experiment [2] it was 77 µM; in experiment [3], 18.4 µM; in experiment [4], 57.4 µM; in [5], 13.5 µM.

Turning to `COc1ccc(/C=C/c2nnc(-c3[nH]nc4c3Cc3ccccc3-4)o2)cc1`, the IC50 in [1] came to 17.1 µM; in experiment [2], 38 µM; in experiment [3], 20.6 µM; in experiment [4], 39.7 µM; in [5], 13.5 µM.

Consider `COc1ccc(/C=C/c2nnc(-c3[nH]nc4c3Cc3cc(F)ccc3-4)o2)cc1`, for which the IC50 in [1] was 63.8 µM; in experiment [2] it was 52 µM; in [3], 39.9 µM; in experiment [4] it was 15.6 µM; in experiment [5], 37.2 µM.

Take `COc1ccc(/C=C/c2nnc(-c3[nH]nc4c3Cc3ccccc3-4)o2)cc1OC`: the IC50 in experiment [1] came to 56.2 µM; in experiment [2] it was 63 µM; in [3] it was 36.4 µM; in [4], 22.8 µM; in experiment [5] it was 26 µM.

As for `COc1cc2c(cc1OC)-c1n[nH]c(-c3nnc(/C=C/c4ccccc4)o3)c1C2`, the IC50 in [1] stood at 32.9 µM; in experiment [2], 65 µM; in experiment [3], 30.9 µM; in experiment [4], 15 µM; in experiment [5], 11.5 µM.

For `O=[N+]([O-])c1ccc(/C=C/c2nnc(-c3[nH]nc4c3Cc3ccccc3-4)o2)cc1`, the IC50 is 41.9 µM in experiment [1]; 66 µM in [2]; 18.3 µM in [3]; 17.7 µM in experiment [4]; 18.5 µM in experiment [5].

As to `Nc1ccn([C@@H]2O[C@H](CO)[C@@H](O)C2(F)F)c(=O)n1` [GEMCITABINE], the IC50 in [1] was determined as 6.1 µM; in experiment [2], 80 µM; in experiment [3] it was 4.2 µM; in experiment [4] it was 9.4 µM; in experiment [5], 8 µM.

In the case of `C(=C\c1nnc(-c2[nH]nc3c2Cc2ccccc2-3)o1)/c1ccccc1`, the IC50 in [1] is 22.7 µM; in experiment [2] it was 45 µM; in experiment [3] it was more than 50 µM; in [4], 14.8 µM; in [5], 18.7 µM.
